Results reported in patent US7666890B2, “Synthesis and herbicidal activity of 1- (2-substituted benzo[d]thiazol-5-yl)-1H-1,2,4-triazol-5(4H)-one derivatives” (Huazhong Normal University, priority 2007, dated 2010).

Key:
Assay in all cases: Test of herbicidal activities (greenhouse pot method)
Type in all cases: in vivo
[1] = tested on: Chenopodium album; settings: for Herbicidal activity Chenopodium album (inhibition level): single dose 300 g ai./h, treated before/after germination, 15 days later, greenhouse pot
Method: (§1) Garden soil was collected from regions where no pesticide is used and mixed uniformly with mountain soil and organic humus soil at a volume ratio of 1:1:1.
(§2) Multiple flowerpots each having a diameter of 9.5 cm and a depth of 8 cm were filled with the soil mixture to 3/4 volume. After water was added to the soil and the soil was completely wet, seeds of three grass weeds and three broadleaf weeds were inserted into the flowerpots (10-15 seeds for each weed). After seeding, the seeds were covered with fine oil mixed with sand and having a thickness of 1-3 cm. After the soil absorbed enough water and became saturated, excess water at the bottom of the flowerpot was drained, and the seeds were placed in a greenhouse for growth.
(§3) The weeds were watered every day so as to keep relative humidity of the soil at approximately 80%, growing temperature of 15-30° C., and air humidity above 50%. As the grass weeds grew to a 2-leaf stage and the broadleaf weeds was in a leaf period, spraying operation […] was performed on the stems and leafs. Planting before germination was performed before spraying. Soil processing was performed before the seeds of the weeds emerged.
(§4) Six target weeds comprising three grass weeds: Echinochloa crusgalli, Digiatria sanguinalis, Setaria viridis, along with three broadleaf weeds: Brassica juncea, Amaranthus retroflexus, Chenopodium album were treated before/after germination using a so-called “greenhouse pot” method with a single dose. A treating dose was 300 g ai./h. The process was repeated three times, and a blank control was used.
(§5) A 3WPSHZ-500 type automatic spraying tower with a spraying area of 0.132 m^2, a spray volume of 10 mL, working pressure of 0.2 MPa, and a liquid volume of 40% of maximum was used. After treatment, the weeds were placed in a greenhouse at a temperature of 15-30° C. Reaction symptoms of the weeds were regularly observed, and 15 days later, five reaction levels were determined according to the following inhibition intervals: 90≦A≦100%; 80≦B<90%, 60≦C<80%; 50≦D<60%, E<50%.

[2] = tested on: Amaranthus retroflexus; settings: for Herbicidal activity Amaranthus retroflexus (inhibition level): single dose 300 g ai./h, treated before/after germination, 15 days later, greenhouse pot
Method: as §1, §2, §3, §4, §5

[3] = tested on: Digiatria sanguinalis; settings: for Herbicidal activity Digiatria sanguinalis (inhibition level): single dose 300 g ai./h, treated before/after germination, 15 days later, greenhouse pot
Method: as §1, §2, §3, §4, §5

[4] = tested on: Setaria viridis; settings: for Herbicidal activity Setaria viridis (inhibition level): single dose 300 g ai./h, treated before/after germination, 15 days later, greenhouse pot
Method: as §1, §2, §3, §4, §5

[5] = tested on: Echinochloa crusgalli; settings: for Herbicidal activity Echinochloa crusgalli (inhibition level): single dose 300 g ai./h, treated before/after germination, 15 days later, greenhouse pot
Method: as §1, §2, §3, §4, §5

[6] = tested on: Brassica juncea; settings: for Herbicidal activity Brassica juncea (inhibition level): single dose 300 g ai./h, treated before/after germination, 15 days later, greenhouse pot
Method: as §1, §2, §3, §4, §5

Structure (SMILES)	Herbicidal activity Chenopodium album (inhibition level) [1]	Herbicidal activity Amaranthus retroflexus (inhibition level) [2]	Herbicidal activity Digiatria sanguinalis (inhibition level) [3]	Herbicidal activity Setaria viridis (inhibition level) [4]	Herbicidal activity Echinochloa crusgalli (inhibition level) [5]	Herbicidal activity Brassica juncea (inhibition level) [6]	inhibition at 300 g/ha ([1]; Chenopodium album, 360 h, read-out: Herbicidal activity Chenopodium album (inhibition level))	inhibition at 300 g/ha ([2]; Amaranthus retroflexus, 360 h, read-out: Herbicidal activity Amaranthus retroflexus (inhibition level))	inhibition at 300 g/ha ([3]; 360 h, read-out: Herbicidal activity Digiatria sanguinalis (inhibition level))	inhibition at 300 g/ha ([4]; Setaria viridis, 360 h, read-out: Herbicidal activity Setaria viridis (inhibition level))	inhibition at 300 g/ha ([5]; Echinochloa crus-galli, 360 h, read-out: Herbicidal activity Echinochloa crusgalli (inhibition level))	inhibition at 300 g/ha ([6]; Brassica juncea, 360 h, read-out: Herbicidal activity Brassica juncea (inhibition level))
C=CCSc1nc2cc(-n3nc(C)n(C(F)F)c3=O)c(Cl)cc2s1 [Compound 99]	C (60 ≦ C < 80%)	B (80 ≦ B < 90%)	B (80 ≦ B < 90%)	B (80 ≦ B < 90%)	A (90 ≦ A ≦ 100%)	B (80 ≦ B < 90%)	–	–	–	–	–	–
Cc1nn(-c2cc3nc(SCc4ccco4)sc3cc2F)c(=O)n1C(F)F [Compound 29]	B (80 ≦ B < 90%)	C (60 ≦ C < 80%)	B (80 ≦ B < 90%)	B (80 ≦ B < 90%)	C (60 ≦ C < 80%)	C (60 ≦ C < 80%)	–	–	–	–	–	–
CSc1nc2cc(-n3nc(C)n(C(F)F)c3=O)c(Cl)cc2s1 [Compound 96]	B (80 ≦ B < 90%)	B (80 ≦ B < 90%)	B (80 ≦ B < 90%)	C (60 ≦ C < 80%)	B (80 ≦ B < 90%)	B (80 ≦ B < 90%)	–	–	–	–	–	–
Cc1nn(-c2cc3nc([S+]([O-])Cc4cccc(Cl)c4)sc3cc2F)c(=O)n1C (stereo not drawn) [Compound 103]	A (90 ≦ A ≦ 100%)	A (90 ≦ A ≦ 100%)	B (80 ≦ B < 90%)	B (80 ≦ B < 90%)	E (E < 50%)	D (50 ≦ D < 60%)	–	–	–	–	–	–
CCCSc1nc2cc(-n3nc(C)n(C(F)F)c3=O)c(F)cc2s1 [Compound 92]	E (E < 50%)	A (90 ≦ A ≦ 100%)	B (80 ≦ B < 90%)	C (60 ≦ C < 80%)	B (80 ≦ B < 90%)	A (90 ≦ A ≦ 100%)	–	–	–	–	–	–
CCCCSc1nc2cc(-n3nc(C)n(C(F)F)c3=O)c(Cl)cc2s1 [Compound 97]	B (80 ≦ B < 90%)	B (80 ≦ B < 90%)	C (60 ≦ C < 80%)	C (60 ≦ C < 80%)	B (80 ≦ B < 90%)	B (80 ≦ B < 90%)	–	–	–	–	–	–
Cc1ccc(C[S+]([O-])c2nc3cc(-n4nc(C)n(C(F)F)c4=O)c(F)cc3s2)cc1 (stereo not drawn) [Compound 105]	B (80 ≦ B < 90%)	B (80 ≦ B < 90%)	C (60 ≦ C < 80%)	B (80 ≦ B < 90%)	D (50 ≦ D < 60%)	B (80 ≦ B < 90%)	–	–	–	–	–	–
CCOC(=O)C(C)[S+]([O-])c1nc2cc(-n3nc(C)n(C(F)F)c3=O)c(F)cc2s1 (stereo not drawn) [Compound 118]	B (80 ≦ B < 90%)	A (90 ≦ A ≦ 100%)	C (60 ≦ C < 80%)	C (60 ≦ C < 80%)	D (50 ≦ D < 60%)	D (50 ≦ D < 60%)	–	–	–	–	–	–
CCCCSc1nc2cc(-n3nc(C)n(C(F)F)c3=O)c(F)cc2s1 [Compound 91]	C (60 ≦ C < 80%)	A (90 ≦ A ≦ 100%)	A (90 ≦ A ≦ 100%)	A (90 ≦ A ≦ 100%)	A (90 ≦ A ≦ 100%)	A (90 ≦ A ≦ 100%)	–	–	–	–	–	–
Cc1nn(-c2cc3nc(S(C)(=O)=O)sc3cc2F)c(=O)n1C [Compound 35]	C (60 ≦ C < 80%)	B (80 ≦ B < 90%)	A (90 ≦ A ≦ 100%)	A (90 ≦ A ≦ 100%)	C (60 ≦ C < 80%)	D (50 ≦ D < 60%)	–	–	–	–	–	–
CCOCCSc1nc2cc(-n3nc(C)n(C(F)F)c3=O)c(Cl)cc2s1 [Compound 78]	B (80 ≦ B < 90%)	A (90 ≦ A ≦ 100%)	A (90 ≦ A ≦ 100%)	A (90 ≦ A ≦ 100%)	C (60 ≦ C < 80%)	D (50 ≦ D < 60%)	–	–	–	–	–	–
CCCCCCS(=O)(=O)c1nc2cc(-n3nc(C)n(C(F)F)c3=O)c(Cl)cc2s1 [Compound 57]	C (60 ≦ C < 80%)	A (90 ≦ A ≦ 100%)	A (90 ≦ A ≦ 100%)	D (50 ≦ D < 60%)	D (50 ≦ D < 60%)	B (80 ≦ B < 90%)	–	–	–	–	–	–
C=CCSc1nc2cc(-n3nc(C(F)(F)F)n(C(F)F)c3=O)c(F)cc2s1 [Compound 123]	A (90 ≦ A ≦ 100%)	A (90 ≦ A ≦ 100%)	B (80 ≦ B < 90%)	B (80 ≦ B < 90%)	D (50 ≦ D < 60%)	D (50 ≦ D < 60%)	–	–	–	–	–	–
C=CC[S+]([O-])c1nc2cc(-n3nc(C)n(C(F)F)c3=O)c(Br)cc2s1 (stereo not drawn) [Compound 117]	B (80 ≦ B < 90%)	C (60 ≦ C < 80%)	B (80 ≦ B < 90%)	E (E < 50%)	C (60 ≦ C < 80%)	C (60 ≦ C < 80%)	–	–	–	–	–	–
CCCCCC[S+]([O-])c1nc2cc(-n3nc(C)n(C(F)F)c3=O)c(Cl)cc2s1 (stereo not drawn) [Compound 114]	A (90 ≦ A ≦ 100%)	A (90 ≦ A ≦ 100%)	A (90 ≦ A ≦ 100%)	B (80 ≦ B < 90%)	B (80 ≦ B < 90%)	A (90 ≦ A ≦ 100%)	–	–	–	–	–	–
Cc1nn(-c2cc3nc(SCc4ccccc4Cl)sc3cc2F)c(=O)n1C(F)F [Compound 24]	B (80 ≦ B < 90%)	A (90 ≦ A ≦ 100%)	B (80 ≦ B < 90%)	D (50 ≦ D < 60%)	C (60 ≦ C < 80%)	C (60 ≦ C < 80%)	–	–	–	–	–	–
CCOC(=O)CSc1nc2cc(-n3nc(C)n(C(F)F)c3=O)c(F)cc2s1 [Compound 93, Ethyl 1-{5-[4-difluoromethyl-3-methyl-5-oxo-4,5-dihydro-1,2,4-triazol-1-yl]-6-fluorobenzo[d]thiazol-2-ylthio}acetate]	–	–	–	–	–	–	90 to 100%	90 to 100%	90 to 100%	80 to 90%	90 to 100%	90 to 100%
